# Measurements taken from patent US6579899B1, “Composition for treatment of stress” (Massachusetts Institute of Technology, priority 1998, dated 2003).
# Counter-ions that a name gives are not always drawn.
# Experiments:
# obese, stressed patients [1] = test: CES-D test of current levels of emotional distress in patients; type: in vivo, human
# Source text: (§1) A subgroup of obese individuals is identified, which individuals describe themselves as being unable to control their eating and who attempt to continue on a weight-reducing diet when experiencing emotional distress. […]
# (§2) Objective measurements of emotional distress are made in some patients using the CES-D (Center for […] Depression Form) test, which measures current levels of emotional distress (Radloff, et al., The CES-D Scale: A Self Report Depression Scale for Research in the General Population Applied Psychological Measurement 1: 385-401, 1977); and the POMS (Profile of Mood States test, that assesses tension, depression, anger and confusion (McNair, et al., Profile of Mood States Manual;San Diego: Educational and Industrial Testing Service, 1971); both of these references are hereby incorporated by reference in their entirety. These tests are also given monthly during the treatment period. At the same time, patients also complete questionnaires that ask the patients to rate their appetite and hunger, and also to rate their tendency to eat in response to a variety of emotional and stressful triggers. The patients are also weighed monthly.
# obese, stressed patients [2] = test: questionnaire rating appetite and hunger; type: in vivo, human; design: Appetite and Cravings: scale not given here
# Source text: as §1, §2
# obese, stressed patients [3] = test: questionnaire rating tendency to eat in response to emotional and stressful triggers; type: in vivo, human; design: Emotional Triggers: scale not given here
# Source text: as §1, §2
# Sprague-Dawley rats = test: stress related eating (clamp tightened on the tail) in rats; type: in vivo, rat; conditions: for Stress Eating, relative amount with 0 mg/kg as 100% / Stressed Rats, average amount of food consumed per rat / Stress Eating / Control Rats, average amount of food consumed per rat: 8 hours; for Stressed Rats, average amount of food consumed per rat: clamp tightened on the tail; for Stress Eating: stressed minus control rats; for stress-related eating: stressed rats, 1-10 mg/kg; for Control Rats, average amount of food consumed per rat: untightened clamp
# Description: The effect of the hydrochloride salt of 6-chloro-2-(1-piperazinyl)pyrazine (MK-212, which is obtained from Merck & Co., Inc. Whitehouse Station, N.J.), on stress related eating in animals is determined through the observation of the effect of experimental compounds on stress-related eating in adult Sprague-Dawley rats. These rats are widely used as a recognized animal model useful in predicting the effect of serotoninergic drugs in humans.
# In these experiments, a group of 5 adult female and 5 adult male Sprague-Dawley rats weighing between 200 and 250 grams each are used as control animals. An untightened clamp is placed on the tail of these animals. The untightened clamp provides the unstressed condition. Each animal is placed in an individual cage and allowed free access to food. The amount of food consumed is determined at 2, 4 and 8 hours after the initiation of the trial. A similar group of rats has a clamp tightened on the tail. The amount of food consumed by this stressed group of rats is shown in the 0 mg/kg column. […] similar groups of stressed rats are injected with 1, 2, 5, or 10 mg/kg body weight of MK-212 one hour before initiation of the experiment.
# The relative amounts of stress eating with the amount at 0 mg/kg MK-212 as 100% is also shown in the Stress Eating row. The preferred daily dose of MK-212 is about 1 mg/kg body weight to about 10 mg/kg body weight.
# [4] = 1 mg/kg injected one hour before
# [5] = 2 mg/kg injected one hour before
# [6] = 5 mg/kg injected one hour before
# [7] = 10 mg/kg injected one hour before
SMILES,"Stress Eating, relative amount with 0 mg/kg as 100% (Sprague-Dawley rats; 1 mg/kg)","Stress Eating, relative amount with 0 mg/kg as 100% (Sprague-Dawley rats; 2 mg/kg)","Stress Eating, relative amount with 0 mg/kg as 100% (Sprague-Dawley rats; 5 mg/kg)","Stress Eating, relative amount with 0 mg/kg as 100% (Sprague-Dawley rats; 10 mg/kg)","Stressed Rats, average amount of food consumed per rat (Sprague-Dawley rats; [4])","Stressed Rats, average amount of food consumed per rat (Sprague-Dawley rats; [5])","Stressed Rats, average amount of food consumed per rat (Sprague-Dawley rats; [6])","Stressed Rats, average amount of food consumed per rat (Sprague-Dawley rats; [7])",Stress Eating (Sprague-Dawley rats; 1 mg/kg),Stress Eating (Sprague-Dawley rats; 2 mg/kg),Stress Eating (Sprague-Dawley rats; 5 mg/kg),Stress Eating (Sprague-Dawley rats; 10 mg/kg),stress-related eating (Sprague-Dawley rats),"Control Rats, average amount of food consumed per rat (Sprague-Dawley rats; [4])","Control Rats, average amount of food consumed per rat (Sprague-Dawley rats; [5])","Control Rats, average amount of food consumed per rat (Sprague-Dawley rats; [6])","Control Rats, average amount of food consumed per rat (Sprague-Dawley rats; [7])",other results
CCN[C@@H](C)Cc1cccc(C(F)(F)F)c1 [dexfenfluramine hydrochloride],,,,,,,,,,,,,,,,,,"Mood Scores CES-D (obese, stressed patients [1]; patient eleven, 30 mg/day, Month 1, baseline 19): 5; Mood Scores CES-D (obese, stressed patients [1]; patient eleven, 30 mg/day, Month 2, baseline 19): 2; Mood Scores CES-D (obese, stressed patients [1]; patient eleven, 30 mg/day, Month 3, baseline 19): 3; Appetite and Cravings (obese, stressed patients [2]; patient eleven, 30 mg/day, Month 1, baseline 9): 6; Appetite and Cravings (obese, stressed patients [2]; patient eleven, 30 mg/day, Month 2, baseline 9): 8; Appetite and Cravings (obese, stressed patients [2]; patient eleven, 30 mg/day, Month 3, baseline 9): 3; Appetite and Cravings (obese, stressed patients [2]; patient eleven, 30 mg/day, Month 4, baseline 9): 5; Emotional Triggers (obese, stressed patients [3]; patient eleven, 30 mg/day, Month 1, baseline 30): 12; Emotional Triggers (obese, stressed patients [3]; patient eleven, 30 mg/day, Month 2, baseline 30): 13; Emotional Triggers (obese, stressed patients [3]; patient eleven, 30 mg/day, Month 3, baseline 30): 5"
COCCCC/C(=N\OCCN)c1ccc(C(F)(F)F)cc1 [fluvoxamine maleate],,,,,,,,,,,,,,,,,,"Mood Scores CES-D (obese, stressed patients [1]; patient three, 50 rising to 150 mg/day, Month 1, baseline 23): 26; Mood Scores CES-D (obese, stressed patients [1]; patient three, 50 rising to 150 mg/day, Month 2, baseline 23): 16; Mood Scores CES-D (obese, stressed patients [1]; patient three, 50 rising to 150 mg/day, Month 3, baseline 23): 15; Mood Scores CES-D (obese, stressed patients [1]; patient three, 50 rising to 150 mg/day, Month 4, baseline 23): 17; Appetite and Cravings (obese, stressed patients [2]; patient three, 50 rising to 150 mg/day, Month 1, baseline 18): 16; Appetite and Cravings (obese, stressed patients [2]; patient three, 50 rising to 150 mg/day, Month 2, baseline 18): 11; Appetite and Cravings (obese, stressed patients [2]; patient three, 50 rising to 150 mg/day, Month 3, baseline 18): 12; Appetite and Cravings (obese, stressed patients [2]; patient three, 50 rising to 150 mg/day, Month 4, baseline 18): 14; Emotional Triggers (obese, stressed patients [3]; patient three, 50 rising to 150 mg/day, Month 1, baseline 34): 27; Emotional Triggers (obese, stressed patients [3]; patient three, 50 rising to 150 mg/day, Month 2, baseline 34): 30; Emotional Triggers (obese, stressed patients [3]; patient three, 50 rising to 150 mg/day, Month 3, baseline 34): 20; Emotional Triggers (obese, stressed patients [3]; patient three, 50 rising to 150 mg/day, Month 4, baseline 34): 24"
"Cc1ccc2c(c1)-c1c(ccn1C[C@H](C)N)C2(C)C [Ro 60-175/ORG 35030, (S)-2-(4,4,7-trimethyl-1,4-dihydro-indol (1,2-B)pyrrol-1-yl)-1-methylethylamine]",(74%),(4%),(3%),(1%),3.66 g,1.43 g,1.30 g,1.16 g,2.38 g,0.13 g,0.10 g,0.03 g,reduces stress related eating,1.28 g,1.30 g,1.20 g,1.13 g,
"Clc1cncc(N2CCNCC2)n1 [MK-212, 6-chloro-2-(1-piperazinyl)pyrazine]",(83%),(76%),(25%),(0%),4.14 g,3.78 g,2.01 g,0.97 g,2.82 g,2.58 g,0.85 g,0.0 g,reduces stress-related eating,1.32 g,1.20 g,1.16 g,1.03 g,
